In PubChem BioAssay (NCI):
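Each compound was tested at five concentrations against cells in 96-well plates for 48 hours. TGI is the concentration that stops growth completely.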

Legend:
Assay in all cases: growth of human tumour cells (NCI), 48 h
RXF-631 renal = system: RXF-631 renal
OVCAR-5 ovarian = system: OVCAR-5 ovarian
SNB-78 CNS = system: SNB-78 CNS
XF 498 CNS = system: XF 498 CNS
CAKI-1 renal = system: CAKI-1 renal
A549 NSCLC = system: A549 NSCLC
OVCAR-3 ovarian = system: OVCAR-3 ovarian
HL-60(TB) leukemia = system: HL-60(TB) leukemia
RPMI-8226 leukemia = system: RPMI-8226 leukemia
SK-MEL-28 melanoma = system: SK-MEL-28 melanoma
EKVX NSCLC = system: EKVX NSCLC
U251 CNS = system: U251 CNS
HCT-116 colon = system: HCT-116 colon
CCRF-CEM leukemia = system: CCRF-CEM leukemia
LXFL 529 NSCLC = system: LXFL 529 NSCLC
OVCAR-8 ovarian = system: OVCAR-8 ovarian
HCC-2998 colon = system: HCC-2998 colon
COLO 205 colon = system: COLO 205 colon
HCT-15 colon = system: HCT-15 colon
SNB-19 CNS = system: SNB-19 CNS
SW-620 colon = system: SW-620 colon
NCI-H23 lung = system: NCI-H23 lung
LOX IMVI melanoma = system: LOX IMVI melanoma
OVCAR-4 ovarian = system: OVCAR-4 ovarian
DMS 273 small cell lung = system: DMS 273 small cell lung
786-0 renal = system: 786-0 renal
SF-268 CNS = system: SF-268 CNS
ACHN renal = system: ACHN renal
NCI-H460 lung = system: NCI-H460 lung
M14 melanoma = system: M14 melanoma
DLD-1 colon = system: DLD-1 colon
MALME-3M melanoma = system: MALME-3M melanoma
HOP-18 NSCLC = system: HOP-18 NSCLC
HT29 colon = system: HT29 colon
NCI-H226 lung = system: NCI-H226 lung
UACC-257 melanoma = system: UACC-257 melanoma
SK-MEL-2 melanoma = system: SK-MEL-2 melanoma
K-562 leukemia = system: K-562 leukemia
HOP-92 NSCLC = system: HOP-92 NSCLC
TK-10 renal = system: TK-10 renal
IGROV1 ovarian = system: IGROV1 ovarian
SK-OV-3 ovarian = system: SK-OV-3 ovarian
DMS 114 small cell lung = system: DMS 114 small cell lung
UO-31 renal = system: UO-31 renal
UACC-62 melanoma = system: UACC-62 melanoma
KM12 colon = system: KM12 colon
SNB-75 CNS = system: SNB-75 CNS
MOLT-4 leukemia = system: MOLT-4 leukemia
SN12C renal = system: SN12C renal
HOP-62 NSCLC = system: HOP-62 NSCLC
NCI-H522 lung = system: NCI-H522 lung
SF-295 CNS = system: SF-295 CNS
A498 renal = system: A498 renal
SR leukemia = system: SR leukemia
SK-MEL-5 melanoma = system: SK-MEL-5 melanoma
SF-539 CNS = system: SF-539 CNS
RXF 393 renal = system: RXF 393 renal

Q: With `COC(=O)C1CCC(Nc2cccc(C(F)(F)F)c2)=N1` (stereo not drawn) as the molecule, how does the TGI (RXF-631 renal) read?
A: > 100 µM

Q: And the TGI (OVCAR-5 ovarian)?
A: > 100 µM

Q: And the TGI (SNB-78 CNS)?
A: > 100 µM

Q: What about the TGI (XF 498 CNS) of the same molecule?
A: > 100 µM

Q: What about the TGI (CAKI-1 renal) of the same molecule?
A: > 100 µM

Q: And the TGI (A549 NSCLC)?
A: > 100 µM

Q: What about the TGI (OVCAR-3 ovarian) of the same molecule?
A: > 100 µM

Q: What about the TGI (HL-60(TB) leukemia) of the same molecule?
A: > 100 µM

Q: What about the TGI (RPMI-8226 leukemia) of the same molecule?
A: > 100 µM

Q: What about the TGI (SK-MEL-28 melanoma) of the same molecule?
A: > 100 µM

Q: What about the TGI (EKVX NSCLC) of the same molecule?
A: > 100 µM

Q: What about the TGI (U251 CNS) of the same molecule?
A: > 100 µM

Q: What about the TGI (HCT-116 colon) of the same molecule?
A: > 100 µM

Q: And the TGI (CCRF-CEM leukemia)?
A: > 100 µM

Q: And the TGI (LXFL 529 NSCLC)?
A: > 100 µM

Q: And the TGI (OVCAR-8 ovarian)?
A: > 100 µM

Q: And the TGI (HCC-2998 colon)?
A: > 100 µM

Q: What about the TGI (COLO 205 colon) of the same molecule?
A: > 100 µM

Q: And the TGI (HCT-15 colon)?
A: > 100 µM

Q: What about the TGI (SNB-19 CNS) of the same molecule?
A: > 100 µM

Q: What about the TGI (SW-620 colon) of the same molecule?
A: > 100 µM

Q: What about the TGI (NCI-H23 lung) of the same molecule?
A: > 100 µM

Q: And the TGI (LOX IMVI melanoma)?
A: > 100 µM

Q: And the TGI (OVCAR-4 ovarian)?
A: > 100 µM

Q: What about the TGI (DMS 273 small cell lung) of the same molecule?
A: > 100 µM

Q: What about the TGI (786-0 renal) of the same molecule?
A: > 100 µM

Q: And the TGI (SF-268 CNS)?
A: > 100 µM

Q: What about the TGI (ACHN renal) of the same molecule?
A: > 100 µM

Q: What about the TGI (NCI-H460 lung) of the same molecule?
A: > 100 µM

Q: And the TGI (M14 melanoma)?
A: > 100 µM

Q: What about the TGI (DLD-1 colon) of the same molecule?
A: > 100 µM

Q: What about the TGI (MALME-3M melanoma) of the same molecule?
A: > 100 µM

Q: What about the TGI (HOP-18 NSCLC) of the same molecule?
A: > 100 µM

Q: And the TGI (HT29 colon)?
A: > 100 µM

Q: And the TGI (NCI-H226 lung)?
A: > 100 µM

Q: What about the TGI (UACC-257 melanoma) of the same molecule?
A: > 100 µM

Q: And the TGI (SK-MEL-2 melanoma)?
A: > 100 µM

Q: What about the TGI (K-562 leukemia) of the same molecule?
A: > 100 µM

Q: And the TGI (HOP-92 NSCLC)?
A: > 100 µM

Q: And the TGI (TK-10 renal)?
A: > 100 µM

Q: And the TGI (IGROV1 ovarian)?
A: > 100 µM

Q: And the TGI (SK-OV-3 ovarian)?
A: > 100 µM

Q: What about the TGI (DMS 114 small cell lung) of the same molecule?
A: > 100 µM

Q: And the TGI (UO-31 renal)?
A: > 100 µM

Q: What about the TGI (UACC-62 melanoma) of the same molecule?
A: > 100 µM

Q: What about the TGI (KM12 colon) of the same molecule?
A: > 100 µM

Q: And the TGI (SNB-75 CNS)?
A: > 100 µM

Q: What about the TGI (MOLT-4 leukemia) of the same molecule?
A: > 100 µM

Q: And the TGI (SN12C renal)?
A: > 100 µM

Q: What about the TGI (HOP-62 NSCLC) of the same molecule?
A: > 100 µM

Q: What about the TGI (NCI-H522 lung) of the same molecule?
A: > 100 µM

Q: What about the TGI (SF-295 CNS) of the same molecule?
A: > 100 µM

Q: And the TGI (A498 renal)?
A: > 100 µM

Q: `CC1=C[C@]2(CC(C)C3C(CC4(C)C5CCC6C(C)(C)C(=O)CC[C@@]67C[C@@]57CC[C@]34C)O2)OC1=O` (stereo partly drawn) was tested. Which TGI (RXF-631 renal) did it give?
A: 30.5 µM

Q: And the TGI (OVCAR-5 ovarian)?
A: > 100 µM

Q: What about the TGI (SNB-78 CNS) of the same molecule?
A: 71.9 µM

Q: And the TGI (SR leukemia)?
A: > 100 µM

Q: What about the TGI (XF 498 CNS) of the same molecule?
A: 30 µM

Q: What about the TGI (CAKI-1 renal) of the same molecule?
A: 62.2 µM

Q: And the TGI (A549 NSCLC)?
A: > 100 µM

Q: And the TGI (HL-60(TB) leukemia)?
A: > 100 µM

Q: What about the TGI (RPMI-8226 leukemia) of the same molecule?
A: > 100 µM

Q: What about the TGI (SK-MEL-28 melanoma) of the same molecule?
A: > 100 µM

Q: What about the TGI (EKVX NSCLC) of the same molecule?
A: > 100 µM

Q: What about the TGI (U251 CNS) of the same molecule?
A: > 100 µM

Q: And the TGI (HCT-116 colon)?
A: > 100 µM

Q: And the TGI (CCRF-CEM leukemia)?
A: > 100 µM

Q: What about the TGI (LXFL 529 NSCLC) of the same molecule?
A: > 100 µM

Q: What about the TGI (OVCAR-8 ovarian) of the same molecule?
A: > 100 µM

Q: What about the TGI (HCC-2998 colon) of the same molecule?
A: > 100 µM

Q: What about the TGI (COLO 205 colon) of the same molecule?
A: > 100 µM

Q: And the TGI (HCT-15 colon)?
A: > 100 µM

Q: And the TGI (SK-MEL-5 melanoma)?
A: 20.2 µM

Q: And the TGI (SNB-19 CNS)?
A: 83.7 µM

Q: What about the TGI (SW-620 colon) of the same molecule?
A: > 100 µM

Q: And the TGI (NCI-H23 lung)?
A: > 100 µM

Q: What about the TGI (LOX IMVI melanoma) of the same molecule?
A: 46.6 µM

Q: And the TGI (OVCAR-4 ovarian)?
A: 57.5 µM

Q: What about the TGI (DMS 273 small cell lung) of the same molecule?
A: 32.6 µM

Q: And the TGI (SF-268 CNS)?
A: > 100 µM

Q: What about the TGI (ACHN renal) of the same molecule?
A: > 100 µM

Q: And the TGI (NCI-H460 lung)?
A: > 100 µM

Q: What about the TGI (M14 melanoma) of the same molecule?
A: > 100 µM

Q: What about the TGI (DLD-1 colon) of the same molecule?
A: > 100 µM

Q: What about the TGI (MALME-3M melanoma) of the same molecule?
A: > 100 µM

Q: And the TGI (HOP-18 NSCLC)?
A: > 100 µM

Q: And the TGI (HT29 colon)?
A: > 100 µM

Q: What about the TGI (NCI-H226 lung) of the same molecule?
A: 22 µM

Q: And the TGI (UACC-257 melanoma)?
A: > 100 µM

Q: What about the TGI (SK-MEL-2 melanoma) of the same molecule?
A: > 100 µM

Q: And the TGI (K-562 leukemia)?
A: > 100 µM

Q: And the TGI (HOP-92 NSCLC)?
A: 45.7 µM

Q: And the TGI (TK-10 renal)?
A: 79 µM

Q: What about the TGI (IGROV1 ovarian) of the same molecule?
A: > 100 µM

Q: And the TGI (DMS 114 small cell lung)?
A: 77.1 µM

Q: What about the TGI (KM12 colon) of the same molecule?
A: > 100 µM

Q: And the TGI (SNB-75 CNS)?
A: 42.1 µM

Q: What about the TGI (MOLT-4 leukemia) of the same molecule?
A: > 100 µM

Q: What about the TGI (SF-539 CNS) of the same molecule?
A: 42.5 µM

Q: What about the TGI (SN12C renal) of the same molecule?
A: > 100 µM

Q: What about the TGI (SF-295 CNS) of the same molecule?
A: 89.5 µM

Q: What about the TGI (A498 renal) of the same molecule?
A: > 100 µM

Q: What about the TGI (RXF 393 renal) of the same molecule?
A: 21.8 µM
